In patent US20240101603A1, “ANTIBACTERIAL PEPTIDES AND COMPOUNDS TARGETING TOXIN-ANTITOXIN SYSTEM OF […], AND THEIR USE” (SEOUL NATIONAL UNIVERSITY R&DB FOUNDATION, priority 2021, published 2024):
Entries after “also recorded” stand apart in the source; their conditions may differ. Where two headings read alike, the source gives them in different places.

T1: VapBC complex (Klebsiella pneumoniae subsp. pneumoniae, UniProt A6TG81)
T1 sequence (A6TG81 1-127): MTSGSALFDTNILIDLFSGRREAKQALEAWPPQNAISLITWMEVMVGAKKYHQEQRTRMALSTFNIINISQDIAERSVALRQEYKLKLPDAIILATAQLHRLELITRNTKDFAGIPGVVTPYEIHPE
T1 sequence (A6TG80 1-82 partner): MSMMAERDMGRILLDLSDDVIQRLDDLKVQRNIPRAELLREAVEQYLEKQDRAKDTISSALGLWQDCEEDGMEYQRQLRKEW

T2: VapC (Klebsiella pneumoniae subsp. pneumoniae, UniProt A6TG81)
T2 sequence (A6TG81 1-127): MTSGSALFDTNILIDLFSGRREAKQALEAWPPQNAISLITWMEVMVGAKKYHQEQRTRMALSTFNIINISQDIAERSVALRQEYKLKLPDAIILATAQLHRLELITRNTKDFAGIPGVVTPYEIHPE


Assays:
VapBC complex = biological target: T1, VapBC complex; experiment: VapBC complex disruption assay (RNase activity of VapC released from the complex); assay type: biochemical; conditions: for VapBC complex disruption efficacy: 1 μM compound added to 10 μM VapBC complex, compared with peptides at 100 μM; for IC50: inhibition curves, 10 μM VapBC complex; for VapBC complex disruption efficacy (RNase activity relative to VapC): 100 μM peptide added to 10 μM VapBC complex
Experimental: (§1) The RNase activity of VapC and VapC mutants was confirmed using an RNase Alert Kit (Integrated DNA Technologies, Inc.). In this analysis, each well contained 50 pm of synthetic RNA with a fluorophore at one end and a quencher group at the other end. The quencher was separated when the prepared RNA was contacted by RNase. Then, fluorescence (RFU) generated during the 1 hour reaction period was detected using a SPECTRAmax GEMINI XS spectrometer (Molecular Devices) at 490 nm (excitation wavelength) and 520 nm (emission wavelength), respectively. For this analysis, the purified VapC and VapC mutants were treated with 10 mM EDTA to remove metal ions and exchanged with a purification buffer containing 10 mM Mg^2+. In each experiment, the concentrations of both VapC and VapC mutants were 10 μM. To prevent contamination, 40 units of RiboLock (Thermoscientific) were added to each well.
In this example, the peptide (100 μM) synthesized in Example 1 was added to the VapBC complex (10 μM) and the RFU of the activated VapC toxin was measured. Other experimental protocols were the same as those for the RNase activity test of VapC and VapC mutants (Experimental Method 5). Upon addition of the peptide of the present invention to the VapBC complex, the inhibitory efficacy of the peptide can be estimated by measuring the RNase activity generated by the free VapC released by the disruption of the VapBC complex.
Using a similar analysis method as in the design of peptides that activate VapC, the inhibitory effect of the compounds was ranked according to the degree of RNase activity by the free VapC released due to the disruption of the VapBC complex. That is, the small molecules were added to the VapBC complex (10 μM) and the efficacy of the small molecules to activate VapC was tested. Other experimental protocols were the same as those described for the peptide-induced complex disruption assay (Examples 2 and 3).

free VapC = experiment: Effect on RNase activity of free VapC; assay type: biochemical, Klebsiella pneumoniae; conditions: substance added to free VapC
Experimental: as §1
However, if the peptide contains the residues that interact with the nucleic acid binding site of VapC, which is the active site of VapC, the destructive ability is suppressed. Accordingly, in this example, the effect of the peptide of the present invention on the activity of free VapC was analyzed.
Through three tests, a total of 400 compounds were narrowed down to 25 according to the inhibitory efficacy ranking. […]

VapC = biological target: T2, VapC; experiment: Isothermal titration calorimetry (ITC), binding to VapC
Experimental: ITC was performed using MicroCal200 (GE Healthcare). The concentrations of protein and DNA were determined using NanoDrop (Thermo) at 280 nm and 260 nm, respectively. Stock solutions of peptides and small molecules were prepared at appropriate concentrations. Titration was performed at 25° C. The data were calculated by subtracting the background and fitted to a single-site binding model using the provided source-based software with MicroCal200.

[1] = biological target: Klebsiella pneumoniae VapC toxin (kpn_04186) with N-terminal tag (Klebsiella pneumoniae (MGH78578)); experiment: ITC, 25 °C, single-site binding model
[2] = 25° C., single-site binding model
[3] = 25° C., single-site binding model, read-out: Kd
[4] = read-out: Kd (affinity to VapC)

Molecule	TΔS (VapC; 25° C.) [kcal/mol]	ΔG (VapC; 25° C.) [kcal/mol]	ΔH (VapC; 25° C.) [kcal/mol]	n (the binding stoichiometry) (VapC; [2])	VapBC complex disruption efficacy (RNase activity relative to VapC) (VapBC complex)	Kd (VapC; [4]) [nM]	Kd [1] [nM]	TΔS [1] [kcal/mol]	n (the binding stoichiometry) [1]	ΔH [1] [kcal/mol]	other results
NC(=O)NC(=O)CCN1CCC(C(=O)c2ccc(O)cc2)CC1 [Compound 1, N-carbamoyl-3-(4-(4-hydroxybenzoyl)piperidine-1-yl)propanamide]	1.93	-6.37	-8.3 ± 0.03	0.98 ± 0.002	–	–	–	–	–	–	VapBC complex disruption efficacy (VapBC complex): higher efficacy at 1 μM; IC50 (VapBC complex): 420 nM; RNase activity of free VapC after treatment (free VapC): did not affect the RNase activity of VapC; Kd (VapC; [3]): 35 ± 0.4 nM
CCC1Oc2cc(S(=O)(=O)N3CCCC(C(=O)Nc4ccc(F)cc4)C3)c(C)cc2NC1=O (stereo not drawn) [Compound 2, 1-((2-ethyl-6-methyl-3-oxo-3,4-dihydro-2H-benzo[b][1,4]oxazine-7-yl)sulfonyl)-N-(4-fluorophenyl)piperidine-3-carboxamide]	1.39	-7.71	-9.1 ± 0.06	0.99 ± 0.004	–	–	–	–	–	–	VapBC complex disruption efficacy (VapBC complex): higher efficacy at 1 μM; IC50 (VapBC complex): 400 nM; RNase activity of free VapC after treatment (free VapC): did not affect the RNase activity of VapC; Kd (VapC; [3]): 22 ± 0.2 nM
GMEAARQL [VapB^71-78, Y74A, Q75A]	–	–	–	–	lower efficacy than the VapB peptide in which either one was mutated to alanine	–	–	–	–	–	–
GMEAQRQL [VapB^71-78, Y74A]	-4.17	-17.57	-13.4 ± 0.02	0.99 ± 0.001	highest efficacy among all the designed peptides; also recorded: higher activity than VapB^71-78	170	–	–	–	–	–
GMEYARQL [VapB^71-78, Q75A]	-1.53	-12.33	-10.8 ± 0.02	0.99 ± 0.001	higher activity than VapB^71-78	150	–	–	–	–	–
GMEYQRQL [VapB^71-78]	-8.4	-26.3	-17.9 ± 0.07	1.02 ± 0.002	–	110	–	–	–	–	–
Klebsiella pneumoniae VapB antitoxin (kpn_04185)	–	–	–	–	–	–	3	-16.4	0.97	-28.1	–
GMEYQRQL [Peptide VapB^71-78]	–	–	–	–	–	–	110	-8.4	1.02	-17.9	–
GMEAQRQL [Peptide VapB^71-78, Y74A]	–	–	–	–	–	–	170	-4.17	0.99	-13.4	–
GMEYARQL [Peptide VapB^71-78, Q75A]	–	–	–	–	–	–	150	-1.53	0.99	-10.8	ΔG [1]: -12.3 kcal/mol
